Measurements as given in the supplement of paper PMC10307832.

Legend:
Assay in all cases: relative viability (nuclei count vs DMSO), 5 days (fraction); higher = more cells survive
Hydroxychloroquine = compound: CCN(CCO)CCCC(C)Nc1ccnc2cc(Cl)ccc12 [Hydroxychloroquine]
Outline: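 Vehicle-anchored 1536-well plates of lung cancer cell lines, held overnight at 37 °C, were pinned with five library-drug doses (not always all listed) spaced by √10. No medium change followed over the next 5 days, after which the cells were fixed, permeabilised and Hoechst-stained together and imaged at 4×. Nuclei were counted with MetaXpress, and viability is treated-well nuclei over vehicle-well nuclei, taken as a median across plates. Plates passed with control CV below 25% and at least one doubling.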

[1] = compound: CCN(CCO)CCCC(C)Nc1ccnc2cc(Cl)ccc12 [Hydroxychloroquine] + O=C(c1cc(Cc2n[nH]c(=O)c3ccccc23)ccc1F)N1CCN(C(=O)C2CC2)CC1 [Olaparib] (partner 8 µM)
Outline: (§1)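 Lung cancer cell lines were pin-tool dosed in 1536-well plates on the day after seeding, with either a lone drug or a fixed anchor-drug dose plus five library-drug doses (not always all listed) in √10 steps. Nuclei were counted on 4× images after 5 days. Relative viability is the ratio of treated-well to vehicle-well nuclei counts, with each value a median of duplicate plates.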

[2] = compound: CCN(CCO)CCCC(C)Nc1ccnc2cc(Cl)ccc12 [Hydroxychloroquine] + N=C(N)NC(=N)NCCc1ccccc1 [Phenformin] (partner 250 µM)
Outline: as §1

[3] = compound: CCN(CCO)CCCC(C)Nc1ccnc2cc(Cl)ccc12 [Hydroxychloroquine] + CC(=O)Nc1cccc(-n2c(=O)n(C3CC3)c(=O)c3c(Nc4ccc(I)cc4F)n(C)c(=O)c(C)c32)c1 [Trametinib] (partner 0.02 µM)
Outline: as §1

Cell Line	relative viability (Hydroxychloroquine; 0.5 µM)	relative viability (Hydroxychloroquine; 1.581 µM)	relative viability (Hydroxychloroquine; 5 µM)	relative viability (Hydroxychloroquine; 15.81 µM)	relative viability (Hydroxychloroquine; 50 µM)	relative viability ([1]; first compound 0.5 µM)	relative viability ([1]; first compound 1.581 µM)	relative viability ([1]; first compound 5 µM)	relative viability ([1]; first compound 15.81 µM)	relative viability ([1]; first compound 50 µM)	relative viability ([2]; first compound 0.5 µM)	relative viability ([2]; first compound 1.581 µM)	relative viability ([2]; first compound 5 µM)	relative viability ([2]; first compound 15.81 µM)	relative viability ([2]; first compound 50 µM)	relative viability ([3]; first compound 0.5 µM)	relative viability ([3]; first compound 1.581 µM)	relative viability ([3]; first compound 5 µM)	relative viability ([3]; first compound 15.81 µM)	relative viability ([3]; first compound 50 µM)
NCI-H2126	1.02	0.967	0.974	0.992	1.06	0.98	0.921	0.9	0.975	0.926	0.528	0.534	0.56	0.521	0.506	0.5	0.516	0.603	0.544	0.55
HCC-44	1.04	0.996	1.01	1.01	1.04	0.964	1.02	1.03	1.01	1.04	0.316	0.145	0.171	0.226	0.234	1.07	1.04	1.14	1.08	1.1
NCI-H520	1.07	1.01	0.906	0.923	1.07	0.344	0.354	0.304	0.337	0.364	0.539	0.403	0.649	0.683	0.628	0.692	0.658	0.589	0.628	0.844
SW 1573	0.918	0.832	0.983	1.07	1.02	0.504	0.484	0.432	0.472	0.458	0.356	0.333	0.402	0.402	0.368	0.617	0.595	0.55	0.625	0.499
NCI-H322M	0.955	0.933	0.957	0.935	0.983	0.741	0.75	0.753	0.725	0.751	0.704	0.799	0.786	0.743	0.744	0.497	0.6	0.511	0.511	0.537
EKVX	0.962	0.902	0.893	1.02	1.01	0.978	0.755	0.769	0.763	1.04	0.249	0.192	0.249	0.243	0.208	0.348	0.302	0.316	0.637	0.352
NCI-H1734	0.918	0.869	0.989	0.942	1.02	0.525	0.601	0.626	0.616	0.635	0.361	0.42	0.361	0.358	0.405	0.639	0.604	0.645	0.668	0.699
SW 900	0.879	0.729	0.837	0.717	0.889	0.894	0.852	0.88	0.819	0.75	0.514	0.496	0.509	0.585	0.513	0.761	1.01	0.779	0.879	0.806
NCI-H596	1.04	0.934	0.892	1.03	1.15	0.668	0.711	0.77	0.716	0.604	0.69	0.66	0.784	0.835	0.908	0.652	0.926	0.769	0.797	0.795
EPLC-272H	0.963	0.843	0.98	0.94	1.08		0.891	0.94	0.929	0.73	0.267	0.312	0.273	0.309	0.241	0.272	0.311	0.273	0.271	0.298
NCI-H441	1.05	0.926	1.33	1.13	1.03	0.543	0.551	0.498	0.547	0.553	0.922	0.726	0.815	0.94	0.944	0.467	0.39	0.386	0.349	0.462
NCI-H1792	0.945	1.03	0.859	0.783	0.776	0.461	0.413	0.195	0.439	0.433	0.529	0.261	0.258	0.102	0.371	0.496	0.464	0.474	0.387	0.378
NCI-H1993	0.974	0.842	0.939	0.883	1.02	1.24	1.04	1.14	0.61	1.11	0.514	0.55	0.475	0.51	0.476	0.525	0.589	0.597	0.551	0.469
NCI-H647	1	1.07	0.894	0.816	0.975	0.521	0.531	0.591	0.626	0.602	0.503	0.556	0.441	0.63	0.661	0.474	0.494	0.438	0.497	0.519
NCI-H1793	1.03	0.791	0.916	0.866	0.998	0.866	0.814	0.878	0.906	0.728	0.38	0.325	0.364	0.351	0.36	0.405	0.463	0.475	0.416	0.344
NCI-H1395	0.887	0.847	0.81	0.83	0.854	0.46	0.467	0.471	0.512	0.423	0.465	0.445	0.451	0.456	0.43	1.09	0.972	0.862	1.02	0.949

Cell Line	relative viability (Hydroxychloroquine; 0.5 µM)	relative viability (Hydroxychloroquine; 1.581 µM)	relative viability (Hydroxychloroquine; 5 µM)	relative viability (Hydroxychloroquine; 15.81 µM)	relative viability (Hydroxychloroquine; 50 µM)	relative viability ([1]; first compound 0.5 µM)	relative viability ([1]; first compound 1.581 µM)	relative viability ([1]; first compound 5 µM)	relative viability ([1]; first compound 15.81 µM)	relative viability ([1]; first compound 50 µM)	relative viability ([2]; first compound 0.5 µM)	relative viability ([2]; first compound 1.581 µM)	relative viability ([2]; first compound 5 µM)	relative viability ([2]; first compound 15.81 µM)	relative viability ([2]; first compound 50 µM)	relative viability ([3]; first compound 0.5 µM)	relative viability ([3]; first compound 1.581 µM)	relative viability ([3]; first compound 5 µM)	relative viability ([3]; first compound 15.81 µM)	relative viability ([3]; first compound 50 µM)
HCC-827	1.03	1.02	1.04	1.02	1.06	0.645	0.618	0.591	0.54	0.561	0.447	0.339	0.359	0.395	0.414	0.506	0.479	0.488	0.563	0.531
ChaGo-K-1	0.958	1.07	0.911	1.01	1.03	0.385	0.381	0.422	0.4	0.422	0.509	0.542	0.438	0.501	0.522	0.962	0.916	0.865	0.853	0.891
NCI-H2228	1.05	0.959	0.945	1.11	1.08	0.716	0.75	0.575	0.653	0.623	0.265	0.342	0.348	0.407	0.292	0.322	0.421	0.654	0.584	0.365
NCI-H2170	0.969	1.15	0.992	0.995	1.15	0.647	0.568	0.679	0.528	0.734	0.427	0.413	0.435	0.427	0.417	0.867	0.852	0.933	1.05	0.896
EMC-BAC-2	1.05	0.824	0.953	1.02	0.912	0.508	0.439	0.472	0.484	0.442	0.543	0.385	0.497	0.523	0.503	0.917	0.694	0.85	0.784	0.753
NCI-H522	1.01	0.844	0.95	0.836	0.954	0.578		0.68	0.642	0.608	0.647	0.581	0.702	0.717	0.623	0.674		0.915	0.65	0.805
NCI-H23	1.04	0.809	0.961	0.915	1.01	0.365	0.36	0.322	0.309	0.204	0.803	0.76	0.806	0.797	0.829	0.387	0.387	0.364	0.36	0.327
SK-LU-1	1.19	0.983	0.949	1.03	1.08	0.45	0.425	0.491	0.426	0.445	0.505	0.528	0.544	0.538	0.429	0.454	0.374	0.508	0.462	0.404
NCI-H358	0.851	0.884	0.88	0.888	0.877	0.675	0.585	0.522	0.973	0.571	0.345	0.284	0.314	0.32	0.323	0.128	0.122	0.132	0.131	0.127
LC-2-ad	1	0.982	0.996	0.998	1.02	0.673	0.664	0.738	0.725	0.772	0.587	0.521	0.573	0.632	0.54	0.925	0.98	0.941	0.865	0.924
HCC-15	1.08	0.956	1.04	1.06	1.04	0.688	0.675	0.735	0.817	0.626	0.461	0.465	0.522	0.497	0.456	0.4	0.387	0.351	0.38	0.311
NCI-H2405	1.03	0.955	0.968	1	1.01	0.934	0.87	0.836	0.886	0.861	0.417	0.352	0.368	0.384	0.398	0.668	0.677	0.585	0.62	0.615
LXF-289	1.06	1.01	1.03	1.02	1.07	1.07	1.06	1.07	1.15	1.16	0.533	0.513	0.517	0.505	0.495	0.659	0.689	0.674	0.72	0.759
CAL-12T	1.01	0.973	0.957	0.979	1.02	0.693	0.63	0.782	0.689	0.68	0.585	0.593	0.587	0.599	0.519	0.268	0.265	0.326	0.338	0.32
COR-L23	1.06	1.17	1.16	1.08	1.03	0.315	0.345	0.381	0.353	0.387	0.445	0.467	0.496	0.49	0.485	0.602	0.582	0.616	0.767	0.712
NCI-H1755	1.05	0.899	0.928	0.99	0.941	0.861	0.841	0.841	0.912	0.827	0.628	0.529	0.63	0.636	0.572	0.743	0.729	0.776	0.726	0.732
